ChEMBL document CHEMBL1201861, “Genomics of Drug Sensitity in Cancer screening data, Wellcome Trust Sanger Institute”

What was measured:
Assay type in all cases: functional, cell-based
RT-4 = test: SANGER: Inhibition of human RT4 cell growth in a cell viability assay.
NCI-H838 = test: cells; conditions: Homo sapiens;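 further: growth inhibition of human NCI-H838 cells, read out by a cell viability assay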
Description: SANGER: Inhibition of human NCI-H838 cell growth in a cell viability assay.

EFE-184 = test: cells; conditions: Homo sapiens
Description: SANGER: Inhibition of human EFE-184 cell growth in a cell viability assay.

IPC-298 = test: SANGER: Inhibition of human IPC-298 cell growth in a cell viability assay.
PLC-PRF-5 = test: cells; conditions: Homo sapiens;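 further: growth inhibition of human PLC-PRF-5 cells, read out with a viability assay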
Description: SANGER: Inhibition of human PLC-PRF-5 cell growth in a cell viability assay.

Caov-3 cell line = test: cells; conditions: Homo sapiens;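 further: cell growth inhibition read out by a viability assay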
Description: SANGER: Inhibition of human Caov-3 cell growth in a cell viability assay.

COLO 205 = test: cells; conditions: Homo sapiens
Description: SANGER: Inhibition of human COLO-205 cell growth in a cell viability assay.

C-4-II = test: SANGER: Inhibition of human C-4-II cell growth in a cell viability assay.
NCI-H1618 = test: cells; conditions: Homo sapiens;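 further: growth inhibition of human NCI-H1618 cells, measured by a cell viability assay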
Description: SANGER: Inhibition of human NCI-H1618 cell growth in a cell viability assay.

Calu-1 = test: SANGER: Inhibition of human Calu-1 cell growth in a cell viability assay.
CCF-STTG1 = test: cells; conditions: Homo sapiens;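 further: growth inhibition of human CCF-STTG1 cells, determined with a cell viability read-out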
Description: SANGER: Inhibition of human CCF-STTG1 cell growth in a cell viability assay.

SNG-M = test: cells; conditions: Homo sapiens
Description: SANGER: Inhibition of human SNG-M cell growth in a cell viability assay.

HCC1143 = test: cells; conditions: Homo sapiens;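 further: growth inhibition of human HCC1143 cells, read out with a cell viability assay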
Description: SANGER: Inhibition of human HCC1143 cell growth in a cell viability assay.

NCI-H1734 = test: cells; conditions: Homo sapiens;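 further: growth inhibition of human NCI-H1734 cells, read out with a cell viability assay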
Description: SANGER: Inhibition of human NCI-H1734 cell growth in a cell viability assay.

MES-SA = test: cells; conditions: Homo sapiens;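 further: growth inhibition of human MES-SA cells, read out with a cell viability assay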
Description: SANGER: Inhibition of human MES-SA cell growth in a cell viability assay.

SK-CO-1 = test: cells; conditions: Homo sapiens;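 further: growth inhibition of SK-CO-1 cells, determined by a viability readout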
Description: SANGER: Inhibition of human SK-CO-1 cell growth in a cell viability assay.

SNU-475 = test: cells; conditions: Homo sapiens
Description: SANGER: Inhibition of human SNU-475 cell growth in a cell viability assay.

MDA-MB-468 = test: cells; conditions: Homo sapiens
Description: SANGER: Inhibition of human MDA-MB-468 cell growth in a cell viability assay.

MFE-296 = test: SANGER: Inhibition of human MFE-296 cell growth in a cell viability assay.
DMS-53 = test: cells; conditions: Homo sapiens;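 further: cell viability assay measuring growth inhibition of human DMS-53 cells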
Description: SANGER: Inhibition of human DMS-53 cell growth in a cell viability assay.

SKM-1 = test: SANGER: Inhibition of human SKM-1 cell growth in a cell viability assay.
NCI-H2107 = test: SANGER: Inhibition of human NCI-H2107 cell growth in a cell viability assay.
KP-N-RT-BM-1 = test: SANGER: Inhibition of human KP-N-RT-BM-1 cell growth in a cell viability assay.
NCI-H128 = test: SANGER: Inhibition of human NCI-H128 cell growth in a cell viability assay.
EW-12 = test: SANGER: Inhibition of human EW-12 cell growth in a cell viability assay.
CP67-MEL = test: SANGER: Inhibition of human CP67-MEL cell growth in a cell viability assay.
RL95-2 = test: cells; conditions: Homo sapiens;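 further: RL95-2 growth inhibition determined through a cell viability readout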
Description: SANGER: Inhibition of human RL95-2 cell growth in a cell viability assay.

D-423MG = test: cells; conditions: Homo sapiens
Description: SANGER: Inhibition of human D-423MG cell growth in a cell viability assay.

BT-549 = test: cells; conditions: Homo sapiens
Description: SANGER: Inhibition of human BT-549 cell growth in a cell viability assay.

H9 = test: cells; conditions: Homo sapiens
Description: SANGER: Inhibition of human H9 cell growth in a cell viability assay.

LU-135 = test: cells; conditions: Homo sapiens
Description: SANGER: Inhibition of human LU-135 cell growth in a cell viability assay.

NCI-H1048 = test: cells; conditions: Homo sapiens;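 further: growth inhibition of human NCI-H1048 cells, read out with a cell viability assay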
Description: SANGER: Inhibition of human NCI-H1048 cell growth in a cell viability assay.

NCI-H2291 = test: cells; conditions: Homo sapiens
Description: SANGER: Inhibition of human NCI-H2291 cell growth in a cell viability assay.

NCI-H1666 = test: cells; conditions: Homo sapiens;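 further: growth inhibition of the cell line, read out with a cell viability assay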
Description: SANGER: Inhibition of human NCI-H1666 cell growth in a cell viability assay.

KNS-62 = test: cells; conditions: Homo sapiens;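 further: inhibition of cell growth, read out with a cell viability assay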
Description: SANGER: Inhibition of human KNS-62 cell growth in a cell viability assay.

TGBC11TKB = test: cells; conditions: Homo sapiens;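 further: growth inhibition of human TGBC11TKB cells, measured by a cell viability assay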
Description: SANGER: Inhibition of human TGBC11TKB cell growth in a cell viability assay.

CFPAC-1 = test: cells; conditions: Homo sapiens;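 further: cell viability readout used to gauge suppression of CFPAC-1 cell proliferation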
Description: SANGER: Inhibition of human CFPAC-1 cell growth in a cell viability assay.

SW900 = test: cells; conditions: Homo sapiens;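 further: IC50 is the concentration that inhibits SW900 cell growth, measured by a cell viability assay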
Description: SANGER: Inhibition of human SW900 cell growth in a cell viability assay.

H-EMC-SS = test: cells; conditions: Homo sapiens
Description: SANGER: Inhibition of human H-EMC-SS cell growth in a cell viability assay.

OC-314 = test: cells; conditions: Homo sapiens
Description: SANGER: Inhibition of human OC-314 cell growth in a cell viability assay.

A549 = test: cells; conditions: Homo sapiens;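 further: growth inhibition of A549 cells, read out with a cell viability assay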
Description: SANGER: Inhibition of human A549 cell growth in a cell viability assay.

EPLC-272H = test: cells; conditions: Homo sapiens
Description: SANGER: Inhibition of human EPLC-272H cell growth in a cell viability assay.

TI-73 = test: cells; conditions: Homo sapiens;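 further: cell viability assay measuring how much compounds suppress growth of the cultured cell line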
Description: SANGER: Inhibition of human TI-73 cell growth in a cell viability assay.

| Structure (SMILES) | IC50 (RT-4) [nM] | IC50 (NCI-H838) [nM] | IC50 (EFE-184) [nM] | IC50 (IPC-298) [nM] | IC50 (PLC-PRF-5) [nM] | IC50 (Caov-3 cell line) [nM] | IC50 (COLO 205) [nM] | IC50 (C-4-II) [nM] | IC50 (NCI-H1618) [nM] | IC50 (Calu-1) [nM] | IC50 (CCF-STTG1) [nM] | IC50 (SNG-M) [nM] | IC50 (HCC1143) [nM] | IC50 (NCI-H1734) [nM] | IC50 (MES-SA) [nM] | IC50 (SK-CO-1) [nM] | IC50 (SNU-475) [nM] | IC50 (MDA-MB-468) [nM] | IC50 (MFE-296) [nM] | IC50 (DMS-53) [nM] | other results |
| --- | --- | --- | --- | --- | --- | --- | --- | --- | --- | --- | --- | --- | --- | --- | --- | --- | --- | --- | --- | --- | --- |
| CCNC(=O)c1noc(-c2cc(C(C)C)c(O)cc2O)c1-c1ccc(CN2CCOCC2)cc1 [LUMINESPIB] | > 256 | 237 | 246 | 96.4 | > 256 | > 256 | 49.2 | 122 | > 256 | 73.3 | 2.97 | 8.56 | > 256 | 32.3 | 4.52 | 79.9 | > 256 | 99.9 | 23.2 | 123 |  |
| Cc1nc(Nc2ncc(C(=O)Nc3c(C)cccc3Cl)s2)cc(N2CCN(CCO)CC2)n1 [DASATINIB] |  |  |  |  |  |  |  |  |  |  |  |  |  |  |  |  |  |  |  |  | IC50 (SKM-1): > 1280 nM; IC50 (NCI-H2107): > 1280 nM; IC50 (KP-N-RT-BM-1): > 1280 nM; IC50 (NCI-H128): > 1280 nM; IC50 (EW-12): > 1280 nM; IC50 (CP67-MEL): 205 nM; IC50 (RL95-2): 104 nM |
| CC[C@@]1(O)C(=O)OCc2c1cc1n(c2=O)Cc2cc3ccccc3nc2-1 [CAMPTOTHECIN] |  |  |  |  |  |  |  |  |  |  |  |  |  |  |  |  |  |  |  |  | IC50 (D-423MG): 2.55 nM; IC50 (BT-549): 17.6 nM; IC50 (H9): 0.358 nM; IC50 (LU-135): 28.2 nM; IC50 (NCI-H1048): 0.529 nM; IC50 (NCI-H2291): > 100 nM; IC50 (NCI-H1666): 18.7 nM; IC50 (KNS-62): 7.7 nM; IC50 (TGBC11TKB): 12.2 nM; IC50 (CFPAC-1): 14.8 nM; IC50 (SW900): 31.8 nM; IC50 (H-EMC-SS): 95.6 nM; IC50 (OC-314): 2.51 nM; IC50 (A549): 14.1 nM; IC50 (EPLC-272H): 72.8 nM; IC50 (TI-73): 14.6 nM |
| CC(O)(CS(=O)(=O)c1ccc(F)cc1)C(=O)Nc1ccc(C#N)c(C(F)(F)F)c1 (stereo not given) [BICALUTAMIDE] | > 1020 | > 1020 | > 1020 | > 1020 | > 1020 | > 1020 | > 1020 | > 1020 | > 1020 | > 1020 | > 1020 | > 1020 | > 1020 | > 1020 | > 1020 | > 1020 | > 1020 | > 1020 | > 1020 | > 1020 |  |
| COc1cc(C)c(Sc2cnc(NC(=O)c3ccc(CNC(C)C(C)(C)C)cc3)s2)cc1C(=O)N1CCN(C(C)=O)CC1 (stereo not given) |  |  |  |  |  |  |  |  |  |  |  |  |  |  |  |  |  |  |  |  | IC50 (SKM-1): > 10200 nM; IC50 (NCI-H2107): > 10200 nM; IC50 (KP-N-RT-BM-1): > 10200 nM; IC50 (NCI-H128): > 10200 nM; IC50 (EW-12): > 10200 nM; IC50 (CP67-MEL): > 10200 nM; IC50 (RL95-2): 4510 nM |
| C/C=C(/C)C(=O)O[C@H]1C(C)=C2[C@H]([C@@H]1OC(=O)CCCCCCC)[C@@](C)(OC(C)=O)C[C@H](OC(=O)CCC)[C@@]1(O)[C@H]2OC(=O)[C@@]1(C)O [THAPSIGARGIN] | 3.74 | 35.3 | > 512 | 6.54 | 91.8 | 37.2 | 3.15 | 20.6 | 10.1 | 2.1 | 67.3 | < 2 | 2.07 | 1.48 | < 2 | 17 | > 512 | 3.98 | 2.95 | 380 |  |
| C/C(O)=C(\C#N)C(=O)Nc1cc(Br)ccc1Br | > 16000 | > 16000 | > 16000 | > 16000 | > 16000 | > 16000 | > 16000 | > 16000 | > 16000 | > 16000 | > 16000 | > 16000 | > 16000 | > 16000 | > 16000 | > 16000 | > 16000 | > 16000 | > 16000 | > 16000 |  |
